Our source for the IC50 values is BindingDB's records for doi:10.1021/jm0497242 (Leadscope, 2004).

The target in the assay is T1, Tyrosine-protein phosphatase non-receptor type 1 (Homo sapiens, UniProt P18031).
T1 sequence (P18031 whole entry): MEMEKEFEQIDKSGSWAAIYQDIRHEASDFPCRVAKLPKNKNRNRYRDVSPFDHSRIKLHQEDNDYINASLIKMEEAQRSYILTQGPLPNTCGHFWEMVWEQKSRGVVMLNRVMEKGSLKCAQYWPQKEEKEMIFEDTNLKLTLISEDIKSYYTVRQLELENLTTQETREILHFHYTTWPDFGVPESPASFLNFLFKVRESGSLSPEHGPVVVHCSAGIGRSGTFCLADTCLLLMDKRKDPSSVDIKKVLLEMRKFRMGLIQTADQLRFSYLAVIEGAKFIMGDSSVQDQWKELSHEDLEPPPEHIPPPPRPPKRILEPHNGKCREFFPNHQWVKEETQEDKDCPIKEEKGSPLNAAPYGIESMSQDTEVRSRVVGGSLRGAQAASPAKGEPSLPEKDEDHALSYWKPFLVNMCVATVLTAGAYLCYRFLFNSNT
The assay is described as follows: Concentration required for 50% inhibition of tyrosine phosphatase 1B.
`O=C(O)[C@@H](Cc1ccccc1)Oc1ccc(-c2ccc(-c3c(Cc4ccccc4)sc4ccccc34)cc2)cc1Br` registered an IC50 of 58.8 nM. Under `O=C(O)c1cc(S(=O)(=O)Oc2ccc(-c3ccc(-c4c(Cc5ccccc5)oc5ccccc45)cc3)cc2)ccc1O` [5-[4''-(2-Benzyl-benzofuran-3-yl)-biphenyl-4-yloxysulfonyl]-2-hydroxy-benzoic acid] stands 27.5 nM; under `O=C(O)CNc1cc(-c2ccc(-c3c(Cc4ccccc4)oc4ccccc34)cc2)ccc1OCCc1ccccc1` [[4'-(2-Benzyl-benzofuran-3-yl)-4-phenethyloxy-biphenyl-3-ylamino]-acetic acid], 83.1 nM.
